System: potential-dependent cation channel of isolated olfactory cells
Test: Test for measuring potential-dependent cation channel activity (whole-cell recording, inward current on depolarization)
Format: cell-based, Japanese fire belly newt (Cynops pyrrhogaster)
Settings: Reference Example; concentration not given
Method: 1. Isolation of Olfactory Cells
To briefly explain the method of isolation, each newt which had been hibernated in ice-water was double-pithed, and the cranium was cut open to remove olfactory mucosa. The removed olfactory mucosa was incubated in a 0.1% collagenase solution at 37° C. for 5 minutes, and collagenase was washed off. Subsequently, the mucosal tissue was crushed by means of a glass pipette to thereby isolate cells. As the normal Ringer's solution, a solution of 110 mM NaCl, 3.7 mM KCl, 3 mM CaCl2, 1 mM MgCl2, 15 mM glucose, 1 mM sodium pyruvate, 10 mM HEPES, and 0.001% (w/v) Phenol Red, at pH 7.4 (adjusted with NaOH), was used.
2. Measurement of Electrical Activity [A. Setting] […] A borosilicate glass capillary (diameter: 1.2 mm) was used as the electrode, and the electrode was produced using a puller for electrode fabrication (P-97, Sutter Instrument Co.) (electrode resistance: approximately 6.0 MΩ). An electrode filling solution and a silver-silver chloride wire were inserted into the electrode, the silver-silver chloride wire was connected to a patch clamp amplifier (EPC10, HEKA), and thus fixation of the membrane potential and depolarization simulation were performed. […] The recording of the membrane current was performed using a computer (IBM-compatible) connected to the patch clamp amplifier (sampling frequency: 1 kHz), and Patch Master software (HEKA) was used for the measurement and analysis. The addition (spraying) of a test substance was carried out using a pressure controller.
[B. Procedure] In order to investigate the effect of each of the test substances described above (see Table 1) on the potential-dependent cation channel activity, the membrane potential of the isolated olfactory cells was fixed at −90 mV, and the membrane potential was depolarized to −20 mV for 20 milliseconds at an interval of 200 milliseconds. The peak intensity of the inward current produced immediately after depolarization (FIG. 1. |a|=[Inward current value produced immediately after depolarization]−[baseline value]) was measured. While depolarization stimulation was continuously repeated, the test substance was adjusted to the various concentrations indicated in Table 1 using normal Ringer's solution, and the mixture was added to the olfactory cells by spraying the mixture (for 650 milliseconds, pressure: 100 kPa) through a glass pipette (tip diameter: 1 μm) that was placed such that the tip of the pipette was located in the vicinity (10 μm) of the olfactory cells . The change in the inward current (FIG. 1, |b|=[Inward current value when the peak intensity was most suppressed]−[baseline value]) resulting from the spraying was investigated. This spraying was carried out continuous for 5 times. Furthermore, the average value A of the peak intensities (a) of the inward current produced by the depolarization immediately before the addition of an extract, and the average value B of the peak intensities (b) of the inward current produced by the depolarization immediately after the addition of an extract were calculated.
The CNG channel current can be easily distinguished from the potential-dependent channel current, in terms of the intensity, peak shape, duration and the like.
The “inward current suppression ratio (%)” was calculated from the “B: average value of the inward current value (b) when the peak intensity was most suppressed” and the “A: average value of the inward current value (a) produced immediately after the depolarization immediately before the addition of an extract,” as shown in the following formula.

| Structure (SMILES) | Channel suppression ratio (inward current suppression ratio) |
| --- | --- |
| CCC(O)COC1CCCCC1C(C)(C)C (centres unmarked) [AMBER CORE] | 27.1% |
| CC(=O)OCCC(C)C [iso-AMYL ACETATE] | 92.0% |
| COc1ccc(C=O)cc1 [ANIS ALDEHYDE] | 89.3% |
| C=CC(C)CCCC(C)(C)O (centres unmarked) [DIHYDRO MYRCENOL] | 109.0% |
| CC(C=O)Cc1ccc(C(C)(C)C)cc1 (centres unmarked) [LILIAL] | 57.9% |
| CC1=CC(C)C(C=O)CC1 (centres unmarked) [TRIPLAL] | 79.9% |
| CC12CCC(CC1)C(C)(C)O2 [1,8-Cineol] | 46.5% |
| CCOC(=O)C12CCCC1C1CCC2C1 (centres unmarked) [FRUIT ATE] | 11.6% |
| CC(C)=CCC/C(C)=C/CO [GERANIOL] | 90.1% |
| CC(C)=CCCC(C)=CC=O [CIT RAL] | 110.6% |
| CC/C=C\CCO [cis-3-HEXENOL] | 78.7% |
| C=CC(C)(CCC=C(C)C)OC(C)=O (centres unmarked) [LINALYL ACETATE] | 43.3% |
| C=CC(C)(O)CCC=C(C)C (centres unmarked) [Linalool] | 106.5% |
| O=Cc1ccccc1 [BENZALDEHYDE] | 95.4% |
| CC(C)(O)CCCC1=CCC(C=O)CC1 (centres unmarked) [LYRAL] | 35.7% |
| CC(=O)OC1CCCCC1C(C)(C)C (centres unmarked) [o-t-B.C.H.A] | 23.8% |
| CC=CC(=O)C1=C(C)CCCC1(C)C [b-DAMASCONE] | 56.1% |
| OCCc1ccccc1 [PHENYL ETHYL ALCOHOL] | 82.6% |
| O=C(OCc1ccccc1)c1ccccc1 [BENTHYL BENZOATE] | 10.7% |
| CCOC(=O)C(C)C1CCCCC1 (centres unmarked) [POIRENATE] | 48.7% |

Same assay, conditions: evaluation concentration 0.01%; depolarization -90 mV to -20 mV; newt olfactory cells

| Structure (SMILES) | Inhibition ratio (%) (inward current suppression ratio) |
| --- | --- |
| NCC12CC3CC(CC(C3)C1)C2 [Example 6, 1-Adamantane methylamine] | 54.5% |
| CC12CC3CC(C)(C1)CC(CO)(C3)C2 [Example 5, 3,5-Dimethyladamantane-1-methanol] | 59.9% |
| CC(=O)NC12CC3CC(CC(C3)C1)C2 [Example 10, 1-Acetamidoadamantane] | 40.6% |
| CC(=O)C12CC3CC(CC(C3)C1)C2 [Example 7, 1-Adamantylmethyl ketone] | 32% |
| CCOC(=O)CC(=O)C12CC3CC(CC(C3)C1)C2 [Example 9, Ethyl-3-(1-adamantyl)-3-oxopropionate] | 45.5% |
| CC(N)C12CC3CC(CC(C3)C1)C2.Cl (centres unmarked) [Example 11] | 78.9% |
| CC12CC3CC(C1)CC(C)(C3)C2 [Comparative Example 2, 1,3-Dimethyladamantane] | 0% |

Same assay, conditions: evaluation concentration 0.04%; depolarization -90 mV to -20 mV; newt olfactory cells

| Structure (SMILES) | Inhibition ratio (%) (inward current suppression ratio) |
| --- | --- |
| OC12CC3CC(CC(C3)C1)C2 [Example 1, 1-Adamantanol] | 72.4% |
| OCCC12CC3CC(CC(C3)C1)C2 [Example 2, 1-Adamantane ethanol] | 63.4% |
| C1C2CC3CC1CC(C2)C3 [Comparative Example 1, Adamantane] | 10.9% |
| O=C(O)CC12CC3CC(CC(C3)C1)C2 [Example 8, 1-Adamantane acetic acid] | 82.5% |

System: not listed separately
Test: Olfaction masking test by sensory evaluation, hexanoic acid as malodorous substance
Format: in vivo, human beings
Settings: 10 panelists, hexanoic acid 10%, 20 μL, test solution 25%, same cotton ball
Method: An olfaction masking test based on sensory evaluation was carried out with 10 panelists. […] The cotton ball was placed in a 50-mL container, and the malodorous substance was volatilized overnight at room temperature.
The evaluation was carried out such that each panelist smelled the odor in the container, and determined the strength of masking of hexanoic acid by the addition of the adamantane derivatives. The intensity of odor of simple hexanoic acid was set to 5.0, which is an intermediate point among the 21 grades of evaluation criteria (0: no odor, 10: strong odor).

| Structure (SMILES) | Hexanoic acid odor intensity suppression ratio (%) |
| --- | --- |
| O=C(O)CC12CC3CC(CC(C3)C1)C2 [Example 8, 1-Adamantane acetic acid] | 32% |

Same assay, conditions: 10 panelists, hexanoic acid 10%, 20 μL, test solution 50%, same cotton ball

| Structure (SMILES) | Hexanoic acid odor intensity suppression ratio (%) |
| --- | --- |
| NCC12CC3CC(CC(C3)C1)C2 [Example 6, 1-Adamantane methylamine] | 78% |
| CC12CC3CC(C)(C1)CC(CO)(C3)C2 [Example 5, 3,5-Dimethyladamantane-1-methanol] | 28% |

System: not listed separately
Test: Sensory evaluation olfaction masking test, isovaleric acid as malodorous substance
Format: in vivo
Settings: 20 panelists; isovaleric acid 1%, 2 μL; test solution 0.1%, 4 μL; six-grade score 0 (masking not achieved) to 5 (perfect masking)
Method: [Sensory evaluation test]
An olfaction masking test based on sensory evaluation was carried out with 20 panelists.
2 μL of the malodorous substance and 4 μL of a test solution of each of the test compounds indicated in Table 3 at a concentration of 0.1% were impregnated into separate cotton balls (diameter: 1 cm), and the substances were volatilized for 12 hours at room temperature in each of separate 50-mL injection syringes. The isovaleric acid and test compound volatilized in the syringe were injected into a PP container (capacity: 500 mL) with a cap and were mixed in the container.
The evaluation was carried out such that each panelist slightly opened the cap of the PP container and smelled the odor in the container, and the panelist determined the masking strength for the odor of isovaleric acid.
The evaluation of the masking strength was carried out based on the following six-grade masking scores, based on a comparison with the intensity of odor in a PP container to which only volatilized isovaleric acid had been injected.
0: Masking is not achieved.
1: A very slight masking effect is recognized.
2: A slight masking effect is recognized.
4: Masking is almost achieved.
5: Perfect masking is achieved.

| Structure (SMILES) | Masking score |
| --- | --- |
| CC=CC(=O)C1=C(C)CCCC1(C)C [b-DAMASCONE] | 2.4 |

— patent US8481016B2, “Method for inhibition of potential-dependent cation channel” (Kao Corporation, priority 2010, dated 2013)
